Measurements: patent publication US20160075689A1, “POLYMERASE, ENDONUCLEASE, AND HELICASE INHIBITORS AND METHODS OF USING THEREOF” (THE BOARD OF TRUSTEES OF THE UNIVERSITY OF ARKANSAS, priority 2013, published 2016)

How the values were obtained:
hpol η [1] = molecular target: T1, hpol η (Homo sapiens, UniProt Q9Y253); test: Gel-based polymerase extension assay; assay type: biochemical; conditions: 6 μM, 13 μM and 60 μM
T1 construct: human DNA polymerases η (amino acids 1-437); 6x-histidine (N, cleaved yes); GST (N, cleaved yes); made in house; host or cells: Escherichia coli BL21 (DE3)
T1 sequence (Q9Y253 1-437): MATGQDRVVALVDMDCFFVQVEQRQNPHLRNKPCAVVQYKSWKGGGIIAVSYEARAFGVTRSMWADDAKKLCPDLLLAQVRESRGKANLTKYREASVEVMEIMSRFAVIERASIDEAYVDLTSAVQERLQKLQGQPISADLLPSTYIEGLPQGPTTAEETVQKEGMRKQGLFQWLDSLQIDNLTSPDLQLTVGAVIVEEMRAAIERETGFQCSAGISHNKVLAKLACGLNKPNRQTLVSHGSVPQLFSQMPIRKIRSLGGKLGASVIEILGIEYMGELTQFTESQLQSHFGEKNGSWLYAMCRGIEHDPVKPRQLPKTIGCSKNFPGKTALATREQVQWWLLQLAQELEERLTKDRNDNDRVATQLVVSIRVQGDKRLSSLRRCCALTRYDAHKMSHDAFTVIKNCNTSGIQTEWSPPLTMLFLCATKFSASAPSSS
Experimental: In order to provide a second measure of enzyme inhibition, polymerase extension assays were performed. Briefly, hpol η (2 nM) was pre-incubated with FAM-13/18-mer primer-template DNA ([…]) and either DMSO (final concentration=10%) or compound (6 μM, 13 μM and 60 μM; maintaining 10% DMSO for all experiments). Polymerase catalysis was initiated by the addition of dNTP (1 mM) and MgCl2 (5 mM). The reaction was allowed to proceed at 37° C. for varying times and then terminated by the addition of 5 μL aliquots of the reaction mix to 25 μL of the quench solution (20 mM EDTA, 95% (v/v) formamide and 0.1% (w/v) bromophenol blue). The samples were separated using a 16% polyacrylamide/7M urea gel and the products analyzed using a Typhoon imager and ImageQuant™ software (GE Healthcare Life Sciences).

Dpo1 = molecular target: T2, Dpo1 (Saccharolobus solfataricus, UniProt P26811); test: Fluorescence-based polymerase assay, IC50; assay type: biochemical, Sulfolobus solfataricus
T2 construct: made in house
T2 sequence (P26811 whole entry): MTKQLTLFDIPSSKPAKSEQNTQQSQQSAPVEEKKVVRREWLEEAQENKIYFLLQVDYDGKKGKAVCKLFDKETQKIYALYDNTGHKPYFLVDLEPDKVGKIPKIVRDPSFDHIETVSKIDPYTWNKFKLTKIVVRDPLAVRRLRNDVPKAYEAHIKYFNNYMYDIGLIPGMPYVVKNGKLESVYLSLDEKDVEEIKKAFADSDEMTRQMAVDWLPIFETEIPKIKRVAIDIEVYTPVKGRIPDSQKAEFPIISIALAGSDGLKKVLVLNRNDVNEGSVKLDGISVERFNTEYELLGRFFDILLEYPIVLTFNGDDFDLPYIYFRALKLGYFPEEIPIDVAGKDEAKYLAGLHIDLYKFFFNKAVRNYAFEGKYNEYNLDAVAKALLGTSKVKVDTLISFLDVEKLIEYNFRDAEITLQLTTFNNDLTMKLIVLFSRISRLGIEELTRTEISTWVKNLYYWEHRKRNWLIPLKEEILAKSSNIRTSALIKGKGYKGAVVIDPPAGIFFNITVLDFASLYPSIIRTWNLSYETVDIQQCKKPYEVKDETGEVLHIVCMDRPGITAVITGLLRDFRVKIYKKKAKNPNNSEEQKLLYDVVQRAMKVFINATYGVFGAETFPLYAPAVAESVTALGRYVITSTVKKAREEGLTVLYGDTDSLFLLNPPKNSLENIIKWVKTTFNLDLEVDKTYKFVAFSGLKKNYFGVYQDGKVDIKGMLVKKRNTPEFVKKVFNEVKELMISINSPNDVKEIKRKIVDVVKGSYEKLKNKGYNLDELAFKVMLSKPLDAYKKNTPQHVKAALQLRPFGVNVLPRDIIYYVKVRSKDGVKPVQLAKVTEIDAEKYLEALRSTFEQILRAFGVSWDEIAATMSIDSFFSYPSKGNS
Experimental: (§1) In order to determine the IC50 value for each enzyme, the fluorescence-based polymerase assay was repeated with increasing concentrations of inhibitor. The conditions varied slightly for each enzyme. With the exception of hpol ι, all IC50 experiments were performed in 50 mM Tris HCl (pH 8.0) buffer containing 1 mM MgCl2, 0.1 mM dTTP, 40 mM NaCl, 2 mM DTT, 0.01% (v/v) Tween-20 and 10% (v/v) DMSO. For experiments with hpol ι, KCl was substituted for NaCl and 0.25 mM MnCl2 was substituted for MgCl2. The concentration of inhibitor was 0, 1, 5, 10, 20, 30, 50, 75 and 100 μM. The enzyme and DNA concentrations were as follows: 10 nM hpol η, 50 nM DNA; 3 nM hpol κ, 60 nM DNA; 50 nM hpol ι, 50 nM DNA; 10 nM Dpo4, 50 nM DNA; 100 nM Dpo1, 50 nM DNA; 50 nM hpol β, 50 nM DNA; 50 nM HIV-1 RT, 50 nM DNA. The percent activity was plotted as a function of the log of inhibitor concentration and fit to a four-parameter logistic model (equation 1) using Prism software (Graph Pad, San Diego, Calif.): […]

hpol η [2] = molecular target: T1, hpol η; test: Fluorescence-based DNA polymerase strand-displacement assay; assay type: biochemical
Description: A library of 320 compounds targeted against nucleic acid interacting proteins was screened for inhibition of polymerase activity using an assay that monitors fluorescence from a 5-carboxytetramethylrhodamine (TAMRA) labeled oligonucleotide. In order to prepare the DNA for the experiment, a TAMRA-labeled reporter (or displaced) strand (SEQ ID NO. 4: 5′-TTT TTT TTG C-TAMRA-3′) and unlabeled primer strand (SEQ ID NO. 5: 5′-TCA CCC TCGTAC GAC TCT T-3′) were annealed to a Black Hole Quencher (BHQ)-labeled template strand (SEQ ID NO. 6: 5′BHQ2-GCAAAAAAAAAA GAG TCG TAC GAG GGT GA-3′) in a solution containing 10 mM Tris (pH 8.0), 50 mM NaCl, 2 mM MgCl2, and dH2O. The template (T), primer (P) and displaced strand (D) oligonucleotides were mixed in a 1:1.5:1.5 (T:P:D) molar ratio for annealing. After an incubation period of three minutes at 95° C., the DNA was allowed to slowly cool to room temperature overnight.
The fluorescence-based assay used to screen for polymerase inhibitors measures polymerase-catalyzed displacement of a TAMRA-labeled oligonucleotide (FIG. 1). For the initial screen, the experimental setup included 50 nM hpol η), 50 nM DNA, 6 μM compound, 100 μM dTTP and 1 mM MgCl2. The reactions were performed in 50 mM Tris (pH 8.0) buffer containing 40 mM NaCl, 2 mM dithiothreitol, and 0.01% (v/v) Tween-20. The concentration of dimethyl sulfoxide (DMSO) was 3.5% (v/v) for the initial screen. The enzyme, the compounds (including a DMSO control) and dTTP were combined with the reaction buffer in individual wells of each half-plate and allowed to incubate for 5-10 minutes. The DNA substrate was subsequently added to initiate the reaction and the plate was read immediately using a BioTek SynergyH4 plate reader (λex=525 nm, λem=598 run). The final reaction volume was 200 μL. Fluorescence was monitored for 90 minutes for most reactions. The initial portion of the velocity curve was analyzed by linear regression to calculate an observed rate of product formation. For each data set, eight DMSO control experiments were averaged to obtain our measure of 100% activity. Rates of product formation in the presence of each compound were then divided by the rate of the DMSO control to produce a relative measure of polymerase activity (0 to 1, with 1 being no inhibition).
as §1

hpol β = molecular target: T3, hpol β (Homo sapiens, UniProt P06746); test: Fluorescence-based polymerase assay, IC50; assay type: biochemical
T3 construct: purchased Enzymax (Lexington, Ky.)
Experimental: as §1

hpol η [3] = molecular target: T1, hpol η; test: Steady-state kinetic analysis of DNA polymerase activity; assay type: biochemical; conditions: for kcat: varying dTTP
Experimental: The steady-state kinetic parameters defining polymerase activity in the presence of inhibitor were determined using the fluorescence-based reporter assay. Hpol q activity was monitored in the presence of increasing concentrations of dTTP (1, 5, 10, 20, 30, 50, 75, and 100 μM). The measured relative fluorescence units (RFUs) were converted to a nanomolar quantity by calculating the total change in fluorescence observed between the start of the reaction and the time point at which the fluorescence change was maximal, and considering that change to be 100% of substrate converted to product. The percentage of substrate converted to product was multiplied by the concentration of dsDNA in the reaction mixture. Product formation was then plotted as a function of time, and by considering only the linear portion of each curve, velocities were calculated for each dTTP concentration. These were then plotted as a function of dTTP concentration, and fit to a hyperbola. After correcting for enzyme concentration, the steady-state kinetic parameters were obtained as described previously. The experiments were then repeated in the presence of inhibitor (10, 20 and 40 μM) to determine the effect of the small-molecule upon Michaelis-Menten kinetics.
Next, the mechanism of polymerase inhibition by ITBA-3 was investigated. The Michaelis-Menten kinetic parameters describing hpol η activity were measured in the presence of increasing concentrations of inhibitor. By varying the concentration of dTTP in the reaction mixture, the turnover number (kcat) and Michaelis constant (Km,dTTP) for hpol η were determined in the absence of inhibitor and at three concentrations of ITBA-3 (Table 3).

O=C1NC(=S)NC(=O)C1=Cc1cn(C(=O)c2ccccc2Br)c2ccc(Cl)cc12 [ITBA-3, 5-((1-(2-bromobenzoyl)-5-chloro-1H-indol-3-yl)methylene)-2-thioxodihydropyimidine-4,6-(1H,5H)-dione]
polymerase activity at increasing concentrations of inhibitor, gel-based analysis (hpol η [1]): dose-dependent decrease in polymerase activity | IC50 (Dpo1): ~80 µM | IC50 (hpol η [2]; 10 nM hpol η, 50 nM DNA, mean ± standard deviation of three data sets, read-out: IC50 for inhibition of hpol η): 29.8 ± 2.7 µM | polymerase activity at increasing concentrations of inhibitor, fluorescence assay (hpol η [2]; 6 μM, 13 μM and 20 μM): dose-dependent decrease in polymerase activity | hpol η percent activity relative to the control assay (hpol η [2]; 50 μM compound): dramatic improvement in activity | IC50 (hpol β): < 50 µM | kcat (hpol η [3]; 10 μM inhibitor): 0.04 ± 0.0017 s⁻¹ | kcat (hpol η [3]; 20 μM inhibitor): 0.05 ± 0.005 s⁻¹ | kcat (hpol η [3]; 40 μM inhibitor): 0.0517 ± 0.0033 s⁻¹ | mode of inhibition (hpol η [3]; with respect to dTTP): competitive
